In ChEMBL document CHEMBL4257591 (J Med Chem, 2018):
Activity calls are given as the source filed them. No cut-off for these calls is given here.

Key:
Staphylococcus aureus [1] = experiment: Induction of membrane permeabilization in Staphylococcus aureus KCTC 1621 at 2 times MIC concentration up to 300 secs by SYTOX green uptake assay; assay type: functional, organism-based
Staphylococcus aureus [2] = experiment: Induction of cytoplasmic membrane depolarization in Staphylococcus aureus KCTC 1621 at 2 times MIC concentration by DiSC3(5)-dye based fluorescence spectrophotometry; assay type: functional, organism-based
Escherichia coli = experiment: Induction of membrane permeabilization in Escherichia coli KCTC 1682 assessed as PI-positive cells at 4 uM after 1 to 2 hrs by propidium iodide-staining based flow cytometry (reference value: 2.36%); assay type: functional
RAW264.7 = experiment: Cytotoxicity against mouse RAW264.7 cells at 32 uM after 48 hrs by MTT assay relative to control; assay type: cell-based; settings: raw264.7, 48 h
Staphylococcus aureus [3] = experiment: Induction of membrane permeabilization in Staphylococcus aureus KCTC 1621 at 2 to 8 times MIC concentration up to 300 secs by SYTOX green uptake assay; assay type: functional, organism-based
[4] = Hemolytic activity in sheep RBC assessed as free hemoglobin level at 16 uM by ELISA relative to control; assay type: ADME, cell-based, Ovis aries, Erythrocyte; settings: sheep red blood cells (erythrocytes), read-out: Activity

**Q.** Which Activity (Staphylococcus aureus [1]) does the source give for `CC[C@H](C)[C@H](NC(=O)CN)C(=O)NCC(=O)N[C@@H](C)C(=O)N[C@H](C(=O)N[C@@H](CC(C)C)C(=O)N[C@@H](CCCCN)C(=O)N[C@H](C(=O)N[C@@H](CC(C)C)C(=O)N[C@H](C(=O)N[C@H](C(=O)NCC(=O)N[C@@H](CC(C)C)C(=O)N1CCC[C@H]1C(=O)N[C@@H](C)C(=O)N[C@@H](CC(C)C)C(=O)N[C@H](C(=O)N[C@@H](CO)C(=O)N[C@@H](Cc1c[nH]c2ccccc12)C(=O)N[C@H](C(=O)N[C@@H](CCCCN)C(=O)N[C@@H](CCCNC(=N)N)C(=O)N[C@@H](CCCCN)C(=O)N[C@@H](CCCNC(=N)N)C(=O)N[C@@H](CCC(N)=O)C(=O)N[C@@H](CCC(N)=O)C(N)=O)[C@@H](C)CC)[C@@H](C)CC)[C@@H](C)O)[C@@H](C)O)C(C)C)C(C)C` [MELITTIN] here?
**A.** Its Activity is “Active”.

**Q.** What about the Activity (Staphylococcus aureus [2]) of the same compound?
**A.** Its Activity is “Active”.

**Q.** What about the Activity (Escherichia coli) of the same compound?
**A.** Its Activity is 55.5%.

**Q.** What about the Activity (RAW264.7) of the same compound?
**A.** The Activity was 100%.

**Q.** What about the Activity (Staphylococcus aureus [3]) of the same compound?
**A.** Its Activity is “inactive”.

**Q.** What about the hemolysis at 16 µM [4] of the same compound?
**A.** The hemolysis at 16 µM was 63%.
